Where two headings read alike, the source gives them in different places.
Tests used:
methionine gamma-lyase = molecular target: T1, methionine gamma-lyase (Pseudomonas putida, UniProt P13254); conditions: cited from earlier work; for inhibition of methionine gamma-lyase (in words): at concentrations between 0.1 mM and 10 mM
T1 sequence (P13254 1-398): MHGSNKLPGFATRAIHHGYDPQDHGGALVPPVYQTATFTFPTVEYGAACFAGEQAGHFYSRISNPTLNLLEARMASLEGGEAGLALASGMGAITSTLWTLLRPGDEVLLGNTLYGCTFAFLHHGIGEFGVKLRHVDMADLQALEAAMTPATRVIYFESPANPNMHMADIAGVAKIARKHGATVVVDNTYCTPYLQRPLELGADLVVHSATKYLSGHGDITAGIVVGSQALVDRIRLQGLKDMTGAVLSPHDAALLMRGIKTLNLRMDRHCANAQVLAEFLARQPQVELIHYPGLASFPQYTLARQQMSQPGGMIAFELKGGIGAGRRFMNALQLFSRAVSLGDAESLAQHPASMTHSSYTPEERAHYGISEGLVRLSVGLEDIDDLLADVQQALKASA

[1] = molecular target: T2, methionine gamma-lyase from Pseudomonas putida ICR 3460 (Pseudomonas putida, UniProt P13254); set-up: methionine gamma-lyase purified from Pseudomonas putida ICR 3460; host or cells: Pseudomonas putida ICR 3460 (enzyme purified from the organism itself); conditions: cited from earlier work; for Vmax as a substrate for methionine gamma-lyase: maximum velocity at saturating substrate concentrations; for Km / Vmax: purified enzyme from Pseudomonas putida ICR 3460
T2 sequence (P13254 1-398): T1 sequence (P13254 1-398)

[2] = molecular target: T2, methionine gamma-lyase from Pseudomonas putida ICR 3460
Description: The 2-ketobutyrate produced in the reaction is quantitated by reaction with lactic dehydrogenase and NADH, and the rate of decrease in the absorbance at 340 nm is monitored.
Stock solutions for the coupled spectrophotometric assay are prepared as follows:
Potassiumphosphate buffer, 100 mM, pH 8.0 containing 0.01 mM pyridoxal 5'-phosphate
NADH in deionized water, 5 mg/ml
Lactate dehydrogenase, crystalline suspension from rabbit muscle in 3.2M ammonium sulfate containing 9.6 mg protein/ml, with a specific activity of 800-1200 units per milligram (Sigma)
The assay mixture is prepared as follows:
A background reading of the absorbance at 340 nm was made. Enzyme solution (10 microliters, appropriately diluted to produce a change of absorbance at 340 nm between 0.1 and 1 absorbance unit per minute) is then added, and the rate of decrease in the absorbance at 340 nm is measured using a spectrophotometer.
One unit of methionine gamma-lyase activity is that amount of enzyme that causes the oxidation of 1 micromole of NADH per minute at room temperature under the assay conditions described above.

| Compound | inhibition of methionine gamma-lyase (in words) (methionine gamma-lyase) | activity as a substrate of methionine gamma-lyase (in words) [1] | inhibition of methionine gamma-lyase by thiol compounds (in words) (methionine gamma-lyase) | other results |
| --- | --- | --- | --- | --- |
| C[C@@H](O)[C@H](N)C(=O)O [L-Threonine] | Nor do these amino acids inhibit methionine gamma-lyase appreciably | either very poor substrates or do not react at all |  |  |
| N[C@@H](CS)C(=O)O [L-cysteine] |  | low activity |  |  |
| N[C@@H](CCS)C(=O)O [L-homocysteine] |  | excellent substrates |  | activity of the purified methionine gamma-lyase ([2]; L-homocysteine as substrate at a concentration of 2.5 mM): approximately 36 units per milligram; Vmax as a substrate for methionine gamma-lyase [1]: 36 micromoles per minute per milligram of pure protein; Km [1]: ≤ 1000 µM; Vmax [1]: 36 µmol/min/mg; Km ([1]; listed as L-Homocysteine): 430 µM |
| N[C@@H](CCO)C(=O)O [L-homoserine] | Nor do these amino acids inhibit methionine gamma-lyase appreciably | either very poor substrates or do not react at all |  |  |
| CSCC[C@H](N)C(=O)O [L-methionine] |  | excellent substrates |  | specific activity of purified methionine gamma-lyase ([2]; L-methionine as substrate, room temperature, pH 8.0, 1 unit = 1 micromole NADH oxidized per minute): approximately 20 units per milligram; Vmax as a substrate for methionine gamma-lyase [1]: about 20 micromoles per minute per milligram of pure protein; Km [1]: ≤ 1000 µM; Vmax [1]: 20.4 µmol/min/mg; Km ([1]; listed as L-Methionine): 1000 µM |
| N[C@@H](CO)C(=O)O [L-serine] | Nor do these amino acids inhibit methionine gamma-lyase appreciably | either very poor substrates or do not react at all |  |  |
| N[C@@H](Cc1c[nH]c2ccccc12)C(=O)O [L-tryptophan] | Nor do these amino acids inhibit methionine gamma-lyase appreciably | either very poor substrates or do not react at all |  |  |
| N[C@@H](Cc1ccc(O)cc1)C(=O)O [L-tyrosine] | Nor do these amino acids inhibit methionine gamma-lyase appreciably | either very poor substrates or do not react at all |  |  |
| O[C@H](CS)[C@@H](O)CS [dithioerythritol] |  | not acted on by the enzyme | nor do they inhibit the enzyme |  |
| O[C@H](CS)[C@H](O)CS [dithiothreitol] |  | not acted on by the enzyme | nor do they inhibit the enzyme |  |
| CC(=O)S [thioacetic acid] |  | not acted on by the enzyme | nor do they inhibit the enzyme |  |
| OCCS [β-mercaptoethanol] |  | not acted on by the enzyme | nor do they inhibit the enzyme |  |

Source: patent publication US5885767A (BioCatalytics, Inc., priority 1998, dated 1999)
